From patent US5179113A, “Treatment of central nervous disorders with imidazole compounds” (E. I. Du Pont de Nemours and Company, priority 1991, dated 1993)
Entries after “also recorded” stand apart in the source; their conditions may differ. Where a name gives a salt, the structure may show the parent alone. One block for each molecule: values may come before it.

Tests used:
[1] = test system: AII-1 receptor; assay: AII receptor antagonism, subtype AII-1, as stated; conditions: stated in words, no data
[2] = test system: male Sprague-Dawley rats (renin-induced amnesia); assay: Renin-disrupted passive avoidance retention; type: in vivo, rat; conditions: for effect on renin-induced amnesia (in words): co-administered with renin IVT
Experimental: Experimentally naive male Sprague-Dawley rats […] (Charles River Breeding Laboratories, Kingston, N.Y.), weighing between 175 to 200 gm were used. The animals were housed four per cage (45.0(L)×20.0(H)×26.0(W) cm) with free access to food and water. They were maintained on a 12 h light/dark cycle (lights on 600 h) and at a room temperature of 22°±1° C. with relative humidity of 50±10%. The experimental sessions were conducted in a two-compartment passive avoidance box. One compartment, made of clear plastic with a perforated clear plastic floor, measured 21(L)×24.5(H)×17(W) cm and was illuminated with a 60 watt incandescent light bulb placed 36 cm above the floor. The other compartment, made of black plastic, measured 30.5(L)×20.3(H)×21.5(W) cm with a floor made of 4 mm stainless steel rods spaced 1.2 cm apart. A grid floor shocker (Coulbourn Instruments) was connected to the steel rods and provided scrambled footshock. The two compartments were separated by a solenoid-operated slide door (Lafayette Instrument Co., Lafayette, Ind.). An electronic counter (Coulbourn Instruments), triggered by the opening or closing of the slide door, recorded acquisition and retention latencies (latencies were defined as the time it took an animal to enter the dark compartment). Passive avoidance training began by placing the rat into the clear compartment of the two-compartment passive avoidance box. Following a 10 sec delay, the slide door to the dark compartment was raised. Once the rat moved completely into the dark compartment (all four paws on the shock grid floor) the slide door was lowered, and after a 10 sec delay, a 1.0 mA shock was applied to the grid floor for three sec. A second three sec shock was delivered after an additional 10 sec delay. The rats were immediately removed from the dark compartment and returned to their home cage. A retention test was given 24 h later. It proceeded in the same manner as the training session except that no shock was applied to the grid floor when the rats were provided access to the dark compartment for a maximum of 300 sec. […] All drugs were administered IVT 60 minutes prior to acquisition training in a volume of 5 μl. Doses are expressed as the free base weight of each compound.

[3] = test system: AII-2 receptors in the brain; assay: Binding of AII antagonists to brain slices, AII-2 sites; conditions: majority of binding sites
[4] = test system: AII receptor subtype-1 (AII-1); conditions: rat adrenal cortex; cited from earlier work
[5] = test system: AII receptor subtype-2 (AII-2); conditions: rat adrenal cortex; cited from earlier work
[6] = test system: AII-1 receptors in the brain; assay: Binding of AII antagonists to brain slices, AII-1 sites; conditions: clusters of AII-1 sites
[7] = test system: release of ACh in entorhinal cortex from rat brain; conditions: in vitro; Barnes et al. 1989; cited from earlier work
[8] = test system: retention of a passive avoidance (PA) response in rats; conditions: injected into dorsal neostriatum; Morgan and Routtenberg 1977; cited from earlier work
[9] = test system: memory of previously learned tasks; conditions: EP 288,907; cited from earlier work
[10] = test system: eight arm radial maze performance in rats; conditions: 3 mg/kg IP; Usinger et al. 1988; cited from earlier work
[11] = test system: AII in cerebrospinal fluid (CSF); conditions: renin into lateral ventricle; AII increased from 40; Koller et al. 1975; cited from earlier work

AII-1 receptor antagonism [1]: AII-1 receptor antagonists
Molecule: CCCc1nc(C(F)(F)F)c(C(=O)O)n1Cc1ccc(-c2ccccc2-c2nn[nH]n2)cc1 [Compound C, sodium salt of 2-n-propyl-1-[(2'-(1H-tetrazol-5-yl)biphenyl-4-yl)methyl]-4-trifluoromethylimidazole-5-carboxylic acid]
effect on renin-induced amnesia (in words) [2]: protected against the amnesia

sensitivity of AII-2 binding sites in brain [3]: DTT-insensitive
sensitivity of AII-1 binding sites in brain [6]: DTT-sensitive
Molecule: O[C@H](CS)[C@H](O)CS (racemic) [DTT, dithiothreitol]
sensitivity of AII-1 receptor to inactivation by DTT [4]: particularly sensitive to inactivation
sensitivity of AII-2 receptor to inactivation by DTT [5]: resistant to DTT inactivation

Molecule: [1-sarcosine, 8-threonine]angiotensin-II
effect on AII-induced reduction of ACh release [7]: antagonized

AII-1 receptor antagonism [1]: AII-1 receptor antagonists
Molecule: CCCc1nc(C(F)(F)F)c(CO)n1Cc1ccc(-c2ccccc2-c2nn[nH]n2)cc1 [Compound D, sodium salt of 2-n-propyl-5-hydroxymethyl-1-[(2'-(1H-tetrazol-5-yl)biphenyl-4-yl)methyl]-4-trifluoromethylimidazole]
effect on renin-induced amnesia (in words) [2]: protected against the amnesia

sensitivity of AII-2 binding sites in brain [3]: EXP655-sensitive
Molecule: Cc1cc(Cn2cnc3c2CC(C(=O)O)N(C(=O)C(c2ccccc2)c2ccccc2)C3)ccc1N (stereo not drawn) [EXP655, 1-(4-amino-3-methylphenyl)methyl-5-diphenylacetyl-4,5,6,7-tetrahydro-1H-imidazo[4,5-c]pyridine-6-carboxylic acid]
effect on renin-induced amnesia (in words) [2]: much less effective in preventing the amnesia

Molecule: NC(=O)[C@@H]1CCCN1C(=O)[C@H](Cc1cnc[nH]1)NC(=O)[C@@H]1CCC(=O)N1 [thyrotropin releasing hormone]
effect on retention of PA response [8]: no effect

Molecule: C[C@H](CS)C(=O)N1CCC[C@H]1C(=O)O [captopril]
effect on renin-induced amnesia (in words) [2]: prevented

Molecule: lysine-8-vasopressin
effect on retention of PA response [8]: no effect

Molecule: NCCCC[C@H](OP(=O)(O)CCCCc1ccccc1)C(=O)N1CCC[C@H]1C(=O)O [SQ 29852]
effect on an anticholinergic effect on performance [9]: ameliorate, at least in part

Molecule: CCOC(=O)C(CCc1ccccc1)NC(C)C(=O)N1CC2(CC3CCC2CC3)CC1C(=O)O (stereo not drawn) [Hoe 288]
effect on muscarinic receptor blockade on performance [10]: partially antagonized the effects of muscarinic receptor blockade on performance

Molecule: AII: Angiotensin-II, circulating hormone thought to act as a neuropeptide in the CNS (DRVYIHPF; Angiotensin-2; UniProt P01019 25-32, looked up)
effect on basal ACh levels [7]: without effects on basal levels
effect on retention of PA response [8]: disruption in retention of a PA response

Molecule: AI: AI, compared with AII in ACh release (DRVYIHPFHL; Angiotensin-1; UniProt P01019 25-34, looked up)
effect on potassium-stimulated release of ACh [7]: not AI

B1: renin: Renin (Sigma Chemicals), a stimulator of endogenous AII biosynthesis (protein, UniProt P00797 67-406, looked up)
Renin: LTLGNTTSSVILTNYMDTQYYGEIGIGTPPQTFKVVFDTGSSNVWVPSSKCSRLYTACVYHKLFDASDSSSYKHNGTELTLRYSTGTVSGFLSQDIITVGGITVTQMFGEVTEMPALPFMLAEFDGVVGMGFIEQAIGRVTPIFDNIISQGVLKEDVFSFYYNRDSENSQSLGGQIVLGGSDPQHYEGNFHYINLIKTGVWQIQMKGVSVGSSTLLCEDGCLALVDTGASYISGSTSSIEKLMEALGAKKRLFDYVVKCNEGPTLPDISFHLGGKEYTLTSADYVFQESYSSKKLCTLAIHAMDIPPPTGPTWALGATFIRKFYTEFDRRNNRIGFALAR
memory deficit / amnesia produced by renin (in words) ([2]; IVT, passive avoidance): produces a reliable memory deficit in rats; also recorded: dose-related amnesia in a PA task
AII in CSF after renin [11]: about 5000 fmol per mL
